Biological target: T1, IL-1 high affinity receptor on L929 fibroblasts (Mus musculus, UniProt P13504)
T1 construct: host or cells: L929 mouse fibroblasts
T1 sequence (P13504 20-576): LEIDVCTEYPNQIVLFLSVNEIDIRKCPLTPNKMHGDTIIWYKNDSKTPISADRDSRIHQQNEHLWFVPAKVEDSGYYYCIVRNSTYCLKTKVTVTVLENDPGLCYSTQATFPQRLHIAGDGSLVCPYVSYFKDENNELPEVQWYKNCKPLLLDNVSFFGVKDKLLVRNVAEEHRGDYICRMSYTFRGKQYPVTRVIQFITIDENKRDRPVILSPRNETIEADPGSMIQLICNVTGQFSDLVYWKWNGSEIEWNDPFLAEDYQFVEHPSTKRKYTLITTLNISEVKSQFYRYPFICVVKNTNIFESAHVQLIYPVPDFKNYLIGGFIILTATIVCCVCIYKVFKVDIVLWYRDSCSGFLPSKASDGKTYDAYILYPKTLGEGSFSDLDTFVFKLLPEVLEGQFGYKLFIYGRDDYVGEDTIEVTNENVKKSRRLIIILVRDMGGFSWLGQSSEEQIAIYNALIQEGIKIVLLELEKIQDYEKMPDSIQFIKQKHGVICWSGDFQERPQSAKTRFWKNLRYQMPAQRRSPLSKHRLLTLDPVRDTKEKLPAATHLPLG
Experiment: 125I-IL-1 high affinity binding to L929 fibroblasts
Settings: for 125I-IL-1 binding, Percent of Control: at 8 Hours (table title), N=6; for reduction of IL-1 high affinity receptor binding: 5 to 50 μM, 5 hr
Source text: Few reports in the literature indicate interaction at these receptor sites other than by peptides or antibodies. […] Blocking these receptors is desirable because the entire inflammation cascade of events is triggered by the early release of TNFa and IL-1. […] Radioisotopes were obtained from New England Nuclear [Dupont, Boston, MA] and substrates and co- factors were obtained from Sigma Chemical Co. [St. Louis, MO]. […] Cell lines were obtained from American Type Culture Collection [Rockville, MD]. In Vivo Tests Anti-inflammatory screen in mice: Male CF male mice weighing 28-32g obtained from Jackson Lab. [Bar Harbor, […]] were used to screen agents at 8 or 16 mg/kg intraperitoneal [I.P.] x 2 administered 3 hr and 30 min prior to administering the irritant, according to Winter's protocol. Evaluation of the induced edema was made by injecting 2% carrageenan in 0.9% saline into the plantar region of the foot. The opposite foot injected with 0.9% isotonic saline was used as a base line. […] Salmonella abortus equi [Lot # 69F4003] […] Drugs from 2 to 16 mg/kg, I.P. were administered 2 hr prior and 2 hr post-injection of the LPS and then subsequently for every 24 hr for the length ofthe animals' lives. Deaths were recorded every 12 hr and continued for 96 hr. […] In vitro TNFa andIL-1 Measurements and Cellular Regulation IC-21 mouse macrophages were maintained in RPMI-1640 + 10% FCS + P/S. After the cells had grown to confluency, E. coli LPS at 10 Ixg/ml was added to the medium. Agents were incubated at 12.5 to 100 µM final concentration for 18 hr. The medium (100 btl) was collected for TNFCt determinations. Interleukin-1 [IL-1] release was determined using P388D1 cells which were maintained in RPMI-1640 + 10% FCS + P/S. The L929 bioassay was used to quantitate the TNF and the IL-1 levels. The L929 mouse fibroblasts were grown in DMEM + 10% FCS + P/S to confluency in 96 well plates and incubated with 100 tl ofmedium from IC-20 or P388D cells after 18 hr. The cells were stained with 0.2% crystal violet in 20% MeOH and read at 580 nm using a Molecular Devices scanner (SOFT-max program). […] The cells were washed repeatedly with isotonic saline, pH.7.2 and aliquots counted. Prostaglandin cylcooxygenase activity Mouse J774AI macrophages maintained in Dulbecco's modified Eagle's medium + 15% FCS + P/S. Cells (5 x 106) were incubated with agents (5 to 100 ].tM final concentration) and 3H-arachidonic acid (100 Ci/mol) for 60 min at 37C in a CO2 incubator. The reaction was terminated with 2N HCI, the mixture extracted 2 X with ether, and the organic layer evaporated.

Row | Structure (SMILES) | 125I-IL-1 binding, Percent of Control (5 μM) | 125I-IL-1 binding, Percent of Control (12.5 μM) | 125I-IL-1 binding, Percent of Control (25 μM) | 125I-IL-1 binding, Percent of Control (50 μM) | reduction of IL-1 high affinity receptor binding
1 | CC(=O)Oc1c2cc(S(=O)(=O)[O-])cc1Cc1cc(S(=O)(=O)[O-])cc(c1OC(C)=O)Cc1cc(S(=O)(=O)[O-])cc(c1OC(C)=O)Cc1cc(S(=O)(=O)[O-])cc(c1OC(C)=O)Cc1cc(S(=O)(=O)[O-])cc(c1OC(C)=O)Cc1cc(S(=O)(=O)[O-])cc(c1OC(C)=O)Cc1cc(S(=O)(=O)[O-])cc(c1OC(C)=O)Cc1cc(S(=O)(=O)[O-])cc(c1OC(C)=O)C2.[Na+].[Na+].[Na+].[Na+].[Na+].[Na+].[Na+].[Na+] [Compound 8] | 9+ 1% of Control | 10 + 5% of Control | 9 + 5% of Control | 7 + 4% of Control | greater than 90%
2 | COc1c2cc(S(=O)(=O)[O-])cc1Cc1cc(S(=O)(=O)[O-])cc(c1OC)Cc1cc(S(=O)(=O)[O-])cc(c1OC)Cc1cc(S(=O)(=O)[O-])cc(c1OC)Cc1cc(S(=O)(=O)[O-])cc(c1OC)Cc1cc(S(=O)(=O)[O-])cc(c1OC)C2.[Na+].[Na+].[Na+].[Na+].[Na+].[Na+] [Compound 6] | 3+2% of Control | 3 + 2% of Control | 3 + 2% of Control | 3 + 1% of Control | greater than 90%

Source: article PMC2365101, “Anti-Inflammatory Activity of (Polyphenolic)-Sulfonates and Their Sodium Salts in Rodents” (Metal-Based Drugs, 1998)
